Assay results from patent US12507703B2, “Methods, devices and compositions for preserving human milk” (The Trustees of Princeton University, priority 2023, dated 2025).
Several values for one entry are separate records, joined by “and”; a condition that tells them apart may be missing. Equal entries are not always repeated.

System: lipase
Assay: Lipase/lipolysis assay (EnzChek Lipase Substrate, quenched BODIPY-fatty acid conjugate) on stored human milk; also: test concentration or dose not given here

Q: For `O=C1C=C2C(=CCOC2O)O1` (centres unmarked) [Patulin], which “Lipase (RFU)” value is on record?
A: 1145.028 RFU

Q: `CCCCCC/C=C\CCCCCCCCCCCC(=O)O` [Paullinic acid] was tested. Which “Lipase (RFU)” value did it give?
A: 1192.519 RFU

Q: `CCCCC/C=C/C=C/C(=O)NCC(C)C` [Pellitorine] was tested. Which “Lipase (RFU)” value did it give?
A: 785.2318 RFU and 741.5651 RFU

Q: For `COc1cc(O)c2c(c1)OC(c1ccc(OC)c(O)c1)CC2=O` (centres unmarked) [Persicogenin], which “Lipase (RFU)” value is on record?
A: 1028.526 RFU

Q: Which “Lipase (RFU)” value does the source give for `CCCCCCCCCCC/C=C\CCCCC(=O)O` [Petroselinic acid] here?
A: 886.6723 RFU

Q: For `COc1cc(-c2[o+]c3cc(O)cc(O)c3cc2O)cc(O)c1O.[Cl-]` [Petunidin (chloride)], which “Lipase (RFU)” value is on record?
A: 1018.887 RFU

Q: Which “Lipase (RFU)” value does the source give for `c1ccc2c(c1)Nc1ccccc1S2` [Phenothiazine] here?
A: 725.1361 RFU

Q: Which “Lipase (RFU)” value does the source give for `O=C(O)COc1ccccc1` [Phenoxyacetic acid] here?
A: 872.4796 RFU and 824.9859 RFU

Q: Which “Lipase (RFU)” value does the source give for `CN(CC(=O)O)C(=N)NP(=O)(O)O` [Phosphocreatine] here?
A: 915.1867 RFU

Q: `C[N+](C)(C)CCOP(=O)(O)O` [Phosphoryl Choline] was tested. Which “Lipase (RFU)” value did it give?
A: 931.0385 RFU

Q: With `C[N+](C)(C)CCOP(=O)(O)O.[Cl-]` [Phosphorylcholine (chloride)] as the compound, how does the “Lipase (RFU)” value read?
A: 831.0181 RFU

Q: `C[N+](C)(C)CCOP(=O)(O)O` [Phosphorylcholine] was tested. Which “Lipase (RFU)” value did it give?
A: 1107.376 RFU

Q: With `CC1=C(C/C=C(\C)CCC[C@H](C)CCC[C@H](C)CCCC(C)C)C(=O)c2ccccc2C1=O` [Phylloquinone] as the compound, how does the “Lipase (RFU)” value read?
A: 1038.691 RFU

Q: Which “Lipase (RFU)” value does the source give for `O.O=P([O-])([O-])OC1C(OP(=O)([O-])[O-])C(OP(=O)([O-])[O-])C(OP(=O)([O-])[O-])C(OP(=O)([O-])[O-])C1OP(=O)([O-])[O-].[Na+].[Na+].[Na+].[Na+].[Na+].[Na+].[Na+].[Na+].[Na+].[Na+].[Na+].[Na+]` (centres unmarked) [Phytic acid (dodecasodium hydrate)] here?
A: 1018.084 RFU and 920.5233 RFU

Q: `CC1=C(C=O)C(C)(C)C[C@H](O[C@@H]2O[C@H](CO)[C@@H](O)[C@H](O)[C@H]2O)C1` [Picrocrocin] was tested. Which “Lipase (RFU)” value did it give?
A: 633.2514 RFU

Q: With `COc1cc(O)c(C(=O)/C=C/c2ccccc2)c(O)c1` [Pinostrobin chalcone] as the compound, how does the “Lipase (RFU)” value read?
A: 969.4657 RFU

Q: Which “Lipase (RFU)” value does the source give for `C1CNCCN1.O=C(O)CC(O)(CC(=O)O)C(=O)O` [Piperazine (citrate)] here?
A: 986.285 RFU

Q: How did the “Lipase (RFU)” value turn out when `CC(=O)CCc1ccc2c(c1)OCO2` [Piperonyl acetone] was run?
A: 718.0889 RFU

Q: `C=C(C[C@@H](O)[C@](C)(O)[C@H]1CC[C@@]2(O)C3=CC(=O)[C@@H]4C[C@@H](O)[C@@H](O)C[C@]4(C)[C@H]3CC[C@]12C)C(C)C` [Polyporusterone B] was tested. Which “Lipase (RFU)” value did it give?
A: 1175.382 RFU

Q: With `NCc1[nH]cc(CCC(=O)O)c1CC(=O)O` [Porphobilinogen] as the compound, how does the “Lipase (RFU)” value read?
A: 1154.849 RFU

Q: Which “Lipase (RFU)” value does the source give for `O=C([O-])[C@H](O)[C@@H](O)[C@H](O)[C@H](O)CO.[K+]` [Potassium Gluconate] here?
A: 966.4096 RFU and 888.9701 RFU

Q: How did the “Lipase (RFU)” value turn out when `O=C([O-])O.[K+]` [Potassium bicarbonate] was run?
A: 726.638 RFU

Q: How did the “Lipase (RFU)” value turn out when `C/C=C/C=C/C(=O)[O-].[K+]` [Potassium sorbate] was run?
A: 727.0693 RFU and 1055.671 RFU

Q: With `Oc1cc(O)c2c(c1)OC1(c3ccc(O)c(O)c3)Oc3cc(O)c4c(c3C2C1O)OC(c1ccc(O)c(O)c1)C(O)C4` (centres unmarked) [Procyanidin A1] as the compound, how does the “Lipase (RFU)” value read?
A: 1206.886 RFU

Q: For `Oc1cc(O)c2c(c1)O[C@H](c1ccc(O)c(O)c1)[C@H](O)[C@H]2c1c(O)cc(O)c2c1O[C@H](c1ccc(O)c(O)c1)[C@H](O)C2` [Procyanidin B2], which “Lipase (RFU)” value is on record?
A: 808.3168 RFU

Q: Which “Lipase (RFU)” value does the source give for `CCCCC[C@H](O)/C=C/[C@H]1C(=O)C[C@H](O)[C@@H]1C/C=C\CCCC(=O)O` [Prostaglandin D2] here?
A: 071064.5 RFU

Q: With `CCCCC[C@H](O)/C=C/[C@H]1[C@H](O)CC(=O)[C@@H]1CCCCCCC(=O)O` [Prostaglandin E1] as the compound, how does the “Lipase (RFU)” value read?
A: 787.5664 RFU

Q: With `CCCCC[C@H](O)/C=C/[C@H]1[C@H](O)CC(=O)[C@@H]1C/C=C\CCCC(=O)O` [Prostaglandin E2] as the compound, how does the “Lipase (RFU)” value read?
A: 1264.564 RFU

Q: With `O=C(O)c1ccc(O)c(O)c1` [Protocatechuic acid] as the compound, how does the “Lipase (RFU)” value read?
A: 981.5941 RFU and 972.5566 RFU
